Experimental findings from US12679878B2, “CRF2 receptor agonists and their use in therapy” (SANOFI, priority 2020, dated 2026) are described below.

Like-named read-outs stand apart in the source and are kept apart here. Starred links: 1 amine or outer side, 2 acyl side, 3 side chain; linkers in the order of their positions; H or OH if unused. Non-standard residues stand in square brackets, D forms with d. Residues, ends and D or L forms follow the SMILES beside them. Groups on a side chain read outwards from the residue. No end group written: not given here. *: point of attachment. C18 diacid = O=C(O)CCCCCCCCCCCCCCCCC(=O)*; γGlu = O=C(O)[C@H](CCC(=O)[*:2])N[*:1]; AEEA = NCCOCCOCC(=O)O; Aib = CC(C)(N)C(=O)O

Data set [1] in a line: Physical stability, dynamic light scattering assay (Example 15). In kind it is physicochemical. Conditions: Buffer D (20 mM phosphate, pH 7.4). As to the method:
The physical stability of the compounds was also assessed using a dynamic light scattering assay.
In the present study, the physical stability of test compounds was assessed by determining the apparent hydrodynamic radius (Rh), the scattering intensity (I) and mass contribution (M) after synthesis (0 weeks) and after storage for 4 weeks at 40° C.
For each solution of test compound, the hydrodynamic radius Rh and the diffusion constant D (related via the Stokes-Einstein equation) were determined as an average over triplicates. Both parameters were determined at different compound concentrations (e.g., Rh1 and D1: 1 mg/ml and Rh5 and D5: 5 mg/ml, Rh10 and D10: 10 mg/mL) in the same buffer system. The difference of these parameters between low and high peptide concentration is a surrogate for the DLS interaction parameter kD. […] In addition, the hydrodynamic radius Rh and the corresponding Scattering Intensity (%) were determined as an average over duplicates. The target concentration was 300 μM. Therefore, solutions from solid samples were prepared in a buffer system with a concentration of 300 μM compound based on the previously determined % purity.
DLS measurements were performed on a DynaPro Plate Reader I (Wyatt Technology, Santa Barbara, CA, US) with an 837 nm laser light source at a scattering angle of 150°. The data were collected and processed with Dynamics V 7.8.1.3 or 7.8.2.18 software provided by Wyatt Technology.
Hydrodynamic radii were determined with non-negatively constrained least squares (NNLS) methods using DYNALS algorithms with regularization fit. […] Samples were tempered over 1 hour at +25° C. and visually inspected before analysis.
Samples were mixed with the aid of a pipet tip. Measurements were performed in 5 replicates. […] The plate was centrifuged for 2 minutes at 600 rcf. After removing the sealing, the samples were measured at +25° C.

Data set [2] is described as follows: Chemical stability, purity loss by UPLC-UV after 28 days at 40° C. vs 5° C., pH 4.5 acetate buffer (Example 12). In kind it is physicochemical. As to conditions: 28 days 40° C. vs 5° C.; pH 4.5, 20 mM acetate buffer; 300 μM. In a few lines: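 300 μM compound (purity-corrected) in 20 mM acetate buffer, pH 4.5, stored 28 days at 5 and 40° C. Purity by UPLC-UV as compound peak area over total peak area. Value is the purity difference between 5° C. and 40° C. samples, relative to the 5° C. purity, in percent.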

A further data set addresses T1, human CRF2α receptor (Homo sapiens, UniProt Q13324).
T1 construct: expressed in transfected cells; host or cells: TeloHEAC
T1 sequence (Q13324 1-411): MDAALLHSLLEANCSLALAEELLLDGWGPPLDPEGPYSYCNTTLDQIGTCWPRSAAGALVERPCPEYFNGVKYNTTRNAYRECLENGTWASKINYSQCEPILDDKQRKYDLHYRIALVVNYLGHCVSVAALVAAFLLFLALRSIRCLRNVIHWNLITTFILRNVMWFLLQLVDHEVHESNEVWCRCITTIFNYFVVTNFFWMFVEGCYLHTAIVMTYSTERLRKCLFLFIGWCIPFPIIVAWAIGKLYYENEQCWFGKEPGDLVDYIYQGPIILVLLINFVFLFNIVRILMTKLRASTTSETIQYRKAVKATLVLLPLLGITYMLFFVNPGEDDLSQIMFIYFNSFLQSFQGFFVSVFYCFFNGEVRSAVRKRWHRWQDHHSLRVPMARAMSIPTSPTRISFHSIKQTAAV
Nature of the data set: cAMP agonism at human CRF2 α receptor in TeloHEAC cells (Example 7). As to conditions: cAMP HTRF, TeloHEAC cells stably expressing human CRF2 α. Type of data set: cell-based. Put shortly: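 Steps: thaw and wash cells; suspend in 1×HBSS, 20 mM HEPES, 0 or 0.1% HSA, 2 mM IBMX; add compound, 30 min RT; lyse with HTRF reagents, 1 h; read 665/620 nm. EC50 calculated, E% versus 1000 nM UCN2.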

Data set [3] in a line: Solubility in buffer systems by UPLC-UV (Example 13). In kind it is physicochemical. Conditions: pH 4.5, Solubility in Buffer B [mg/ml]. In a few lines:
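The supernatant was diluted 1:10 and quantified by UPLC-UV peak area against a reference standard curve, correcting for sequence-based extinction coefficients.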

Data set [4] concerns rat CRF2R α receptor. In words: cAMP agonism at rat CRF2R α receptor in A7R5 rat aortic smooth muscle cells (Example 8). Type of data set: cell-based. Conditions: cAMP HTRF, A7R5 rat aortic smooth muscle cell line, 0% HSA. In a few lines:
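Thawed cryopreserved A7R5 cells in HBSS/20 mM HEPES (0 or 0.1% HSA) with 2 mM IBMX, 2000 cells/well, were exposed to compound for 30 min at room temperature. cAMP was read by HTRF (665/620 nm ratio) after 1 h with lysis reagents. Activity was normalised to 1000 nM urocortin 2 as 100%, and EC50 was taken as the concentration giving 50% of maximal activation.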

A short description of data set [5]: Physical stability, Thioflavin T fibrillation assay (Example 14). In kind it is physicochemical. Conditions: 3 mg/ml, 37° C. shaking. Put shortly:
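Compounds at 3 mg/ml final in buffer were stressed at 37° C by repeated cycles of 10 s shaking at 960 rpm and 50 s rest. ThT fluorescence was read every 20 minutes in eight replicates, with fluorescence increase and lag time indicating fibrillation tendency.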

The target of data set [6] is rat CRF2R α receptor (rat, UniProt P47866 20-411). Nature of the data set: cell-based or functional assay.
The target in data set [7] is T2, endogenous human CRF2 (NCI-H82 cells) (human, UniProt Q13324 20-411).
T2 sequence (looked up): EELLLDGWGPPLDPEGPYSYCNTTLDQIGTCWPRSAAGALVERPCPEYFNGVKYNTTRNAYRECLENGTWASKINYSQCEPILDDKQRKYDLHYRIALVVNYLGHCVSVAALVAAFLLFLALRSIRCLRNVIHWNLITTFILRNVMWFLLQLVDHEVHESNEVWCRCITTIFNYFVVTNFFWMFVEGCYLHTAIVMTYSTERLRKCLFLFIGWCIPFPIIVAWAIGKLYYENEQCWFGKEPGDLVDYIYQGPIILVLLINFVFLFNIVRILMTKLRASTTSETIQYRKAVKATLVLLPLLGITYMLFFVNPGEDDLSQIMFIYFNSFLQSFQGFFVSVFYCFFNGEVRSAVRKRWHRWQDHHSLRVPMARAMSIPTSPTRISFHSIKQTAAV
Nature of the data set: cell-based or functional assay.

Where [8] appears, read: Buffer A: 100 mM acetate buffer, pH 4.5.
[9] abbreviates: Buffer B: 100 mM acetate buffer, pH 4.5, 2.7 mg/ml m-cresol.

For `CC[C@H](C)[C@H](N)C(=O)N[C@H](C(=O)N[C@@H](CC(C)C)C(=O)N[C@@H](CO)C(=O)N[C@@H](CC(C)C)C(=O)N[C@@H](CC(=O)O)C(=O)N[C@@H](C(=O)N1CCC[C@H]1C(=O)N[C@H](C(=O)N[C@@H](CCCCN)C(=O)N[C@@H](CC(C)C)C(=O)N[C@@H](CCCCNC(=O)COCCOCCNC(=O)COCCOCCNC(=O)CC[C@H](NC(=O)CCCCCCCCCCCCCCCCC(=O)O)C(=O)O)C(=O)N[C@@H](CCC(N)=O)C(=O)N[C@H](C(=O)N[C@@H](CC(C)C)C(=O)N[C@@H](CC(C)C)C(=O)N[C@@H](CCCCN)C(=O)N[C@@H](CCC(N)=O)C(=O)N[C@@H](C)C(=O)N[C@@H](CCCNC(=N)N)C(=O)N[C@@H](CCC(N)=O)C(=O)N[C@@H](CCCCN)C(=O)NC(C)(C)C(=O)N[C@@H](CCC(N)=O)C(=O)N[C@@H](CCCNC(=N)N)C(=O)N[C@@H](C)C(=O)N[C@@H](CCC(N)=O)C(=O)N[C@@H](C)C(=O)N[C@@H](CCC(=O)O)C(=O)N[C@@H](CCCCN)C(=O)N[C@@H](CC(N)=O)C(=O)N[C@@H](CCCCN)C(=O)N[C@@H](CCCNC(=N)N)C(=O)N[C@H](C(=O)N[C@@H](CC(C)C)C(=O)N[C@@H](CCC(=O)O)C(=O)N[C@@H](CCCNC(=N)N)C(=O)N[C@H](C(N)=O)C(C)C)[C@@H](C)CC)[C@@H](C)CC)[C@@H](C)CC)C(C)C)C(C)C` [compound 141] (H-IVLSLD[dV]PIKLK([AEEA-AEEA-γGlu-C18 diacid])QILLKQARQK[Aib]QRAQAEKNKRILERV-NH2), the “Apparent Rh [nm] 0 weeks” value in data set [1] (0 weeks) amounted to 2.19 ± 0.18 nm. Further, the “Scattering Intensity (I) [%] 0 weeks” value in data set [1] (0 weeks) is on record as 100 ± 1%. Moreover, the “Apparent Rh [nm] 4 weeks” value in data set [1] (4 weeks at 40° C.) turned out to be 2.34 ± 0.22 nm. In data set [1] (4 weeks at 40° C.), the “Scattering Intensity (I) [%] 4 weeks” value is on record as 98 ± 2%. Further, the “Relative purity loss [%]” value in data set [2] is 2.90%. Moreover, the concentration for a half-maximal effect (EC50) on human CRF2α receptor (0% HSA, read-out: EC50 [nM], 0% HSA) was 0.03 nM; at human CRF2α receptor (0.1% HSA, read-out: EC50 [nM], 0.1% HSA) it was 0.97 nM; in the data set with rat CRF2R α receptor [4], 0.05 nM. The molecule also showed a solubility at 1 h in data set [3] above 8300 µg/mL. Moreover, the “Increase in FI (fluorescence intensity)” value in data set [5] (setting [8]) and in data set [5] (setting [9]) was “No” throughout. Moreover, the “Lag time” value in data set [5] (setting [8]) and in data set [5] (setting [9]) was above 45 h each time.

B1: peptide of SEQ ID NO: 141 (peptide)
peptide: IVLSLD[dV]PIKLK([AEEA-AEEA-γGlu-C18 diacid])QILLKQARQK[Aib]QRAQAEKNKRILERV-NH2
modifications: N-terminus assumed
SMILES: CC[C@H](C)[C@H](N)C(=O)N[C@H](C(=O)N[C@@H](CC(C)C)C(=O)N[C@@H](CO)C(=O)N[C@@H](CC(C)C)C(=O)N[C@@H](CC(=O)O)C(=O)N[C@@H](C(=O)N1CCC[C@H]1C(=O)N[C@H](C(=O)N[C@@H](CCCCN)C(=O)N[C@@H](CC(C)C)C(=O)N[C@@H](CCCCNC(=O)COCCOCCNC(=O)COCCOCCNC(=O)CC[C@H](NC(=O)CCCCCCCCCCCCCCCCC(=O)O)C(=O)O)C(=O)N[C@@H](CCC(N)=O)C(=O)N[C@H](C(=O)N[C@@H](CC(C)C)C(=O)N[C@@H](CC(C)C)C(=O)N[C@@H](CCCCN)C(=O)N[C@@H](CCC(N)=O)C(=O)N[C@@H](C)C(=O)N[C@@H](CCCNC(=N)N)C(=O)N[C@@H](CCC(N)=O)C(=O)N[C@@H](CCCCN)C(=O)NC(C)(C)C(=O)N[C@@H](CCC(N)=O)C(=O)N[C@@H](CCCNC(=N)N)C(=O)N[C@@H](C)C(=O)N[C@@H](CCC(N)=O)C(=O)N[C@@H](C)C(=O)N[C@@H](CCC(=O)O)C(=O)N[C@@H](CCCCN)C(=O)N[C@@H](CC(N)=O)C(=O)N[C@@H](CCCCN)C(=O)N[C@@H](CCCNC(=N)N)C(=O)N[C@H](C(=O)N[C@@H](CC(C)C)C(=O)N[C@@H](CCC(=O)O)C(=O)N[C@@H](CCCNC(=N)N)C(=O)N[C@H](C(N)=O)C(C)C)[C@@H](C)CC)[C@@H](C)CC)[C@@H](C)CC)C(C)C)C(C)C
As to B1, the “EC50 [nM], 0% HSA (cAMP, A7R5 cells)” value with rat CRF2R α receptor [6] was found to be 0.05 nM. Besides, the “EC50 [nM] (cAMP, NCI-H82 cells)” value in data set [7] turned out to be 12 nM.

B2: peptide of SEQ ID NO: 143 (peptide)
peptide: FTLSLDVPTKIK([AEEA-AEEA-γGlu-C18 diacid])QILLKQEKQKKQRQKAKTNKQILERV-NH2
modifications: N-terminus assumed
SMILES: CC[C@H](C)[C@H](NC(=O)[C@H](CCC(N)=O)NC(=O)[C@H](CCCCN)NC(=O)[C@H](CC(N)=O)NC(=O)[C@@H](NC(=O)[C@H](CCCCN)NC(=O)[C@H](C)NC(=O)[C@H](CCCCN)NC(=O)[C@H](CCC(N)=O)NC(=O)[C@H](CCCNC(=N)N)NC(=O)[C@H](CCC(N)=O)NC(=O)[C@H](CCCCN)NC(=O)[C@H](CCCCN)NC(=O)[C@H](CCC(N)=O)NC(=O)[C@H](CCCCN)NC(=O)[C@H](CCC(=O)O)NC(=O)[C@H](CCC(N)=O)NC(=O)[C@H](CCCCN)NC(=O)[C@H](CC(C)C)NC(=O)[C@H](CC(C)C)NC(=O)[C@@H](NC(=O)[C@H](CCC(N)=O)NC(=O)[C@H](CCCCNC(=O)COCCOCCNC(=O)COCCOCCNC(=O)CC[C@H](NC(=O)CCCCCCCCCCCCCCCCC(=O)O)C(=O)O)NC(=O)[C@@H](NC(=O)[C@H](CCCCN)NC(=O)[C@@H](NC(=O)[C@@H]1CCCN1C(=O)[C@@H](NC(=O)[C@H](CC(=O)O)NC(=O)[C@H](CC(C)C)NC(=O)[C@H](CO)NC(=O)[C@H](CC(C)C)NC(=O)[C@@H](NC(=O)[C@@H](N)Cc1ccccc1)[C@@H](C)O)C(C)C)[C@@H](C)O)[C@@H](C)CC)[C@@H](C)CC)[C@@H](C)O)C(=O)N[C@@H](CC(C)C)C(=O)N[C@@H](CCC(=O)O)C(=O)N[C@@H](CCCNC(=N)N)C(=O)N[C@H](C(N)=O)C(C)C
Regarding B2, the “EC50 [nM] (cAMP, NCI-H82 cells)” value in data set [7] was 93 nM.
